# Laboratory results taken from patent US12312355B2, “1H-[1, 2, 3]triazolo[4, 5-h] quinazoline compounds acting as protein kinase inhibitors” (CHENGDU CYNOGEN BIO-PHARMACEUTICAL TECHNOLOGY CO., LTD., priority 2019, dated 2025).
# Where a name gives a salt, the structure may show the parent alone.
# Tests used:
# Assay type in all cases: biochemical
# Settings in all cases: class symbols
# CDK4/cyclin D3 = CDK4/cyclin D3 (Homo sapiens (Human), UniProt P11802); assay: Kinase activity assay, Caliper Mobility Shift Assay, CDK4/cyclin D3
# Experimental: The inhibitory effect of the compound on the kinase CDK4/cyclin D3 was tested by the Caliper Mobility Shift Assay method. The final test concentration of the compound was 10 concentrations, which started from […] and were obtained by three-fold dilution. 5 μL of 5-fold final concentration compound and 10 μL of CDK4/Cyclin D3 kinase solution with final concentration of 10 nM were added to the 384-well reaction plate respectively, and pre incubated at room temperature for 10 minutes (the negative control well contained 10 μL kinase buffer and 5 μL 5% DMSO; the positive control well contained 10 μL kinase solution and 5 μL 5% DMSO). The mixture of 10 μL ATP with a final concentration of 250 μM and the corresponding substrate peptide was added to initiate the reaction, and the mixture was reacted at room temperature for 150 minutes. 30 μL of stop test solution containing EDTA was added to stop the kinase reaction. Conversion rate was read by Caliper EZ Reader. Conversion inhibition rate %=(average conversion rate of positive control %−sample conversion rate %)/(average conversion rate of positive control %−average conversion rate of negative control %). Wherein: the negative control well represents conversion rate reading of wells without enzyme activity; the positive control well represents conversion rate reading of wells without compound inhibition. The log value of concentration was taken as the X-axis and the percentage inhibition rate was the Y-axis. […] Calculation formula: Y=Bottom+(Top−Bottom)/(1+10^((Log IC50−X)*HillSlope)).
# CDK6/cyclin D3 = CDK6/cyclin D3 (Homo sapiens (Human), UniProt Q00534); assay: Kinase activity assay, Caliper Mobility Shift Assay, CDK6/cyclin D3
# CDK2/cyclin A2 = CDK2/cyclin A2 (Homo sapiens (Human), UniProt P24941); assay: Kinase activity assay, Caliper Mobility Shift Assay, CDK2/cyclin A2
# Experimental: The inhibitory effect of the compound on the kinase CDK4/cyclin D3 was tested by the Caliper Mobility Shift Assay method. The final test concentration of the compound was 10 concentrations, which started from […] and were obtained by three-fold dilution. 5 μL of 5-fold final concentration compound and 10 μL of CDK4/Cyclin D3 kinase solution with final concentration of 10 nM were added to the 384-well reaction plate respectively, and pre incubated at room temperature for 10 minutes (the negative control well contained 10 μL kinase buffer and 5 μL 5% DMSO; the positive control well contained 10 μL kinase solution and 5 μL 5% DMSO). The mixture of 10 μL ATP with a final concentration of 250 μM and the corresponding substrate peptide was added to initiate the reaction, and the mixture was reacted at room temperature for 150 minutes. 30 μL of stop test solution containing EDTA was added to stop the kinase reaction. Conversion rate was read by Caliper EZ Reader. Conversion inhibition rate %=(average conversion rate of positive control %−sample conversion rate %)/(average conversion rate of positive control %−average conversion rate of negative control %). Wherein: the negative control well represents conversion rate reading of wells without enzyme activity; the positive control well represents conversion rate reading of wells without compound inhibition. The log value of concentration was taken as the X-axis and the percentage inhibition rate was the Y-axis. The dose-effect curve was fitted by log(inhibitor) vs. response—Variable slope of the analysis software GraphPad Prism 5, and the IC50 value of each compound on the enzyme activity was obtained. Calculation formula: Y=Bottom+(Top−Bottom)/(1+10^((Log IC50−X)*HillSlope)).
# The IC50 values of the compounds of the present disclosure for CDK6/cyclin D3 and CDK2/cyclin A2 were tested in a similar manner.
# Chain of CDK4/cyclin D3 (P11802 whole entry, species assumed): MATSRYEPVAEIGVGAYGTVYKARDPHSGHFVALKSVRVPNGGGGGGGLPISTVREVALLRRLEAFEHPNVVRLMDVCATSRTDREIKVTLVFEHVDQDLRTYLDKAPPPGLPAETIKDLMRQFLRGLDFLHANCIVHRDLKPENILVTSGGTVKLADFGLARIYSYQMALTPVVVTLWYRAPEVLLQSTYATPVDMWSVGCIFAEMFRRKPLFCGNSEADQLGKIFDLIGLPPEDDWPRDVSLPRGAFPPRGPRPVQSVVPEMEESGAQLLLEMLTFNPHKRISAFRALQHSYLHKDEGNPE
# Chain of CDK4/cyclin D3 (P30281 whole entry partner, species assumed): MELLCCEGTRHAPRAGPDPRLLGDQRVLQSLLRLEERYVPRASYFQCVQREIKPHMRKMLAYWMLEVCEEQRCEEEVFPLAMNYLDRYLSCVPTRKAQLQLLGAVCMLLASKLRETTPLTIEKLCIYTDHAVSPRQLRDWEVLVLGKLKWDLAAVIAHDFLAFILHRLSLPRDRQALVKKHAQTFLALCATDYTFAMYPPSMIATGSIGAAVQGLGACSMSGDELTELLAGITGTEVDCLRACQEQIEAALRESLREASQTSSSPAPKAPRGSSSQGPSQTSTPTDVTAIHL
# Chain of CDK6/cyclin D3 (Q00534 whole entry, species assumed): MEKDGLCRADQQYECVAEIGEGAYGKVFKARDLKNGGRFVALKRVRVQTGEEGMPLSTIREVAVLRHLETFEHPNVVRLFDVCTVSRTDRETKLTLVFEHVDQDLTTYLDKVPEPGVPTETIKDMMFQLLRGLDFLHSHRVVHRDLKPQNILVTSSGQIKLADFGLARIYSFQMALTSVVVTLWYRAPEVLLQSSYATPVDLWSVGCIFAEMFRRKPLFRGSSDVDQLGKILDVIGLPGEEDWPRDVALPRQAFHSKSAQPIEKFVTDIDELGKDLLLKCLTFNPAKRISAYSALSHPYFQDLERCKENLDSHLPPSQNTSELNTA
# Chain of CDK6/cyclin D3 (P30281 whole entry partner, species assumed): as the sequence (P30281 whole entry partner, species assumed) above
SMILES,IC50 (CDK4/cyclin D3) [nM],IC50 (CDK6/cyclin D3) [nM],IC50 (CDK2/cyclin A2) [nM]
"CC(C)n1nnc2ccc3cnc(Nc4ccc(N5CCC(CCCO)CC5)cc4)nc3c21 [Compound I-27, 3-(1-(4-((1-isopropyl-1H-[1,2,3]triazolo [4,5-h]quinazolin-8-yl)amino)phenyl)pi-peridin-4-yl)propan-1-ol]",50 to 100,50 to 100,50 to 100
"CC(C)n1nnc2ccc3cnc(Nc4ccc(OCCN(C)C)cc4)nc3c21 [Compound I-38, N-(4-(2-(Dimethylamino)ethoxy)phenyl)-1-isopropyl-1H-[1,2,3]triazolo[4,5-h]quin-azolin-8-amine]",< 10,< 10,< 10
CC(C)n1nnc2ccc3cnc(Nc4ccc(C(=O)N5CCN(C)CC5)cc4)nc3c21 [Compound I-40],< 10,< 10,< 10
"CCN1CCN(c2ccc(Nc3ncc4ccc5nnn(C(C)C)c5c4n3)cc2)CC1 [Compound I-25, N-(4-(4-Ethylpiperazin-1-yl)phenyl)-1-iso-propyl-1H-[1,2,3]triazolo[4,5-h]quin-azolin-8-amine]",< 10,< 10,< 10
"COc1cc(N2CCN(C)CC2)ccc1Nc1ncc2ccc3nnn(C(C)C)c3c2n1 [Compound I-31, 1-Isopropyl-N-(2-methoxy-4-(4-methyl-piperazin-1-yl)phenyl)-1H-[1,2,3]triazo-lo[4,5-h]quinazolin-8-amine]",50 to 100,50 to 100,50 to 100
"CC(C)n1nnc2ccc3cnc(Nc4ccc(N5CCOCC5)c(F)c4)nc3c21 [Compound I-35, N-(3-Fluoro-4-morpholinophenyl)-1-iso-propyl-1H-[1,2,3]triazolo[4,5-h]quinazo-lin-8-amine hydrochloride]",10 to 50,10 to 50,10 to 50
"CC(C)n1nnc2ccc3cnc(Nc4ccc(N5CCOCC5)cc4)nc3c21 [Compound I-26, 1-Isopropyl-N-(4-morpholinophenyl)-1H-[1,2,3]triazolo[4,5-h]quinazolin-8-amine]",< 10,< 10,< 10
"CC(C)n1nnc2ccc3cnc(Nc4ccc(N5CCNCC5)cc4)nc3c21 [Compound I-24, 1-isopropyl-N-(4-(piperazin-1-yl)phenyl)-1H-[1,2,3]triazolo[4,5-h]quinazolin-8-amine hydrochloride]",< 10,< 10,< 10
"CCN1CCN(c2ccc(Nc3ncc4ccc5nnn(C(C)C)c5c4n3)cc2F)CC1 [Compound I-34, N-(4-(4-Ethylpiperazin-1-yl)-3-fluorophe-nyl)-1-isopropyl-1H-[1,2,3]triazolo[4,5-h]quinazolin-8-amine hydrochloride]",< 10,< 10,< 10
"CC(C)n1nnc2ccc3cnc(Nc4ccc(N5CCNCC5)cc4F)nc3c21 [Compound I-28, N-(2-Fluoro-4-(piperazin-1-yl)phenyl)-1-isopropyl-1H-[1,2,3]triazolo[4,5-h]quin-azolin-8-amine hydrochloride]",< 10,< 10,< 10
"Cc1cc(Nc2ncc3ccc4nnn(C(C)C)c4c3n2)ncc1N1CCNCC1 [Compound I-2, 1-Isopropyl-N-(4-methyl-5-(piperazin-1-yl)pyridin-2-yl)-1H-[1,2,3]triazolo[4,5-h]quinazolin-8-amine hydrochloride]",10 to 50,50 to 100,–
"CC(C)n1nnc2ccc3cnc(Nc4ccc(N5CCNCC5)nn4)nc3c21 [Compound I-13, 1-Isopropyl-N-(6-(piperazin-1-yl)pyri-dazin-3-yl)-1H-[1,2,3]triazolo[4,5-h]quin-azolin-8-amine hydrochloride]",< 10,10 to 50,–
"CC(C)n1nnc2ccc3cnc(Nc4ccc(N5CCOCC5)cc4F)nc3c21 [Compound I-29, N-(2-Fluoro-4-morpholinophenyl)-1-iso-propyl-1H-[1,2,3]triazolo[4,5-h]quinazo-lin-8-amine]",50 to 100,50 to 100,50 to 100
"CC(C)n1nnc2ccc3cnc(Nc4ccc(N5CCN(C6CC6)CC5)cn4)nc3c21 [Compound I-8, N-(5-(4-Cyclopropylpiperazin-1-yl)py-ridin-2-yl)-1-isopropyl-1H-[1,2,3]tri-azolo[4,5-h]quinazolin-8-amine hydrochloride]",< 10,10 to 50,–
"CC(C)n1nnc2ccc3cnc(Nc4cccc(S(N)(=O)=O)c4)nc3c21 [Compound I-36, 3-((1-isopropyl-1H-[1,2,3]triazolo[4,5-h]quinazolin-8-yl)amino)benzenesulfonamide hydrochloride]",< 10,< 10,< 10
"CC(C)n1nnc2ccc3cnc(Nc4ccc(N5CCNCC5=O)cn4)nc3c21 [Compound I-14, 1-(6-((1-Isopropyl-1H-[1,2,3]triazolo[4,5-h]quinazolin-8-yl)amino)pyridin-3-yl)piperazin-2-one hydrochloride]",< 10,10 to 50,–
"CC(C)n1nnc2ccc3cnc(Nc4ccc(N5CCN(C)CC5)c(F)c4)nc3c21 [Compound I-33, N-(3-Fluoro-4-(4-methylpiperazin-1-yl)phenyl)-1-isopropyl-1H-[1,2,3]triazolo[4,5-h]quinazolin-8-amine]",< 10,< 10,< 10
"CC(C)N1CCN(c2ccc(Nc3ncc4ccc5nnn(C(C)C)c5c4n3)nc2)CC1 [Compound I-7, 1-Isopropyl-N-(5-(4-isopropylpiperazin-1-yl)pyridin-2-yl)-1H-[1,2,3]triazolo [4,5-h]quinazolin-8-amine hydrochloride]",< 10,< 10,–
"CC(C)n1nnc2ccc3cnc(Nc4ccc(N5CCNCC5)c(F)c4)nc3c21 [Compound I-32, N-(3-Fluoro-4-(piperazin-1-yl)phenyl)-1-isopropyl-1H-[1,2,3]triazolo[4,5-h]quin-azolin-8-amine hydrochloride]",< 10,< 10,< 10
"CC(C)n1nnc2ccc3cnc(Nc4ccc(N5CC6(CCNCC6)C5)cn4)nc3c21 [Compound I-17, N-(5-(2,7-Diazaspiro[3.5]nonan-2-yl)pyridin-2-yl)-1-isopropyl-1H-[1,2,3]tri-azolo[4,5-h]quinazolin-8-amine hydrochloride]",< 10,10 to 50,–
"CC(C)n1nnc2ccc3cnc(Nc4ccc(N(CCN5CCOCC5)S(C)(=O)=O)cc4)nc3c21 [Compound I-37, N-(4-((1-Isopropyl-1H-[1,2,3]triazolo[4,5-h]quinazolin-8-yl)amino)phenyl)-N-(2-morpholinoethyl)methanesulfonamide]",< 10,< 10,< 10
"CC(C)n1nnc2ccc3cnc(Nc4ccc(N5CCOCC5)cn4)nc3c21 [Compound I-6, 1-Isopropyl-N-(5-morpholinopyridin-2-yl)-1H-[1,2,3]triazolo[4,5-h]quinazo-lin-8-amine hydrochloride]",< 10,10 to 50,–
"CCN1CCN(Cc2ccc(Nc3ncc4ccc5nnn(C(C)C)c5c4n3)nc2)CC1 [Compound I-10, N-(5-((4-Ethylpiperazin-1-yl)methyl)pyridin-2-yl)-1-isopropyl-1H-[1,2,3]tri-azolo[4,5-h]quinazolin-8-amine hydrochloride]",< 10,10 to 50,–
"CC(C)Cn1nnc2ccc3cnc(Nc4ccc(N5CCOCC5)cn4)nc3c21 [Compound I-21, 1-Isobutyl-N-(5-morpholinopyridin-2-yl)-1H-[1,2,3]triazolo[4,5-h]quinazolin-8-amine]",10 to 50,50 to 100,–
"COc1ccc2cc(Nc3ncc4ccc5nnn(C(C)C)c5c4n3)ccc2n1 [Compound I-16, 1-Isopropyl-N-(2-methoxyquinolin-6-yl)-1H-[1,2,3]triazolo[4,5-h]quinazolin-8-amine hydrochloride]",< 10,< 10,–
